# Test results published in patent publication US20060199966A1, “Indol-2-amides as glycogen phosphorylase inhibitors” (AstraZeneca AB, priority 2003, published 2006).
# Assays:
# [1] = system: conscious dogs; conditions: following a glucagon challenge; cited from earlier work
# [2] = target: T1, Human recombinant liver glycogen phosphorylase a (hrl GPa) (Homo sapiens, UniProt P06737); assay: Glycogen phosphorylase inhibition, multienzyme coupled assay; assay type: biochemical; conditions: hrl GPa 20 nM, 6 hours at 30° C.
# T1 sequence (P06737 1-847): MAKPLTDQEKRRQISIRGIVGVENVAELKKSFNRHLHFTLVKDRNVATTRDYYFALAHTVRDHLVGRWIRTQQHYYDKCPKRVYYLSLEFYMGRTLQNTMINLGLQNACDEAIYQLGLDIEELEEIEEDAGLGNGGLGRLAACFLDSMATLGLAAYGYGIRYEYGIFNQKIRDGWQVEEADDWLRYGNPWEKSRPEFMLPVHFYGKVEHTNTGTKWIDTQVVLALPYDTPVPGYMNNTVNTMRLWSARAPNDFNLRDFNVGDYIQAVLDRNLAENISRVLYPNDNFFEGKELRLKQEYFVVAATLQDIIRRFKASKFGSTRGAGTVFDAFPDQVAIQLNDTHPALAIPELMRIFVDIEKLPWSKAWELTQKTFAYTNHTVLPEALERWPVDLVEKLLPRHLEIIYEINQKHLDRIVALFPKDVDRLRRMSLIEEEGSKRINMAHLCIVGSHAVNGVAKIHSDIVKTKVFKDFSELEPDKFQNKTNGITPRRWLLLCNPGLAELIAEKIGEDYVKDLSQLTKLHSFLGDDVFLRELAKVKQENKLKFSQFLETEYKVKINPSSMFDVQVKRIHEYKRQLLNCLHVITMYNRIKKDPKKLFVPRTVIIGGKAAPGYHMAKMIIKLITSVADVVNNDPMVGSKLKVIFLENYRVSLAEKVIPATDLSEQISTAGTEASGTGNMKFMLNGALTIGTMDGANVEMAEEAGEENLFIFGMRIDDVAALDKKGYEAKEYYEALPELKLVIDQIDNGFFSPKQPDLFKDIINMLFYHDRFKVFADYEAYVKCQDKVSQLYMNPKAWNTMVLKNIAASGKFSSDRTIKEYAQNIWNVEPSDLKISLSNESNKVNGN
# Experimental: The activity of the compounds is alternatively determined by measuring the inhibitory effect of the compounds on glycogen degradation, the production of glucose-1-phosphate from glycogen is monitored by the multienzyme coupled assay, as described in EP 0 846 464 A2, general method of Pesce et al (Pesce, M A, Bodourian, S H, Harris, R C, and Nicholson, J F (1977) Clinical Chemistry 23, […]). The reactions were in 384 well microplate format in a volume of 50 μl. The change in fluorescence due to the conversion of the co-factor NAD to NADH is measured at 340 nm excitation, 465 nm emission in a Tecan Ultra Multifunctional Microplate Reader. The reaction is in 50 mM […], 3.5 mM KH2PO4, 2.5 mM MgCl2, 2.5 mM ethylene glycol-bis(b-aminoethyl ether) N,N,N,′N′-tetraacetic acid, 100 mM KCl, 8 mM D-(+)-glucose pH7.2, containing 0.5 mM dithiothreitol, the assay buffer solution. Human recombinant liver glycogen phosphorylase a (hrl GPa) 20 nM is pre-incubated in assay buffer solution with 6.25 mM NAD, 1.25 mg type E1 glycogen at 1.25 mg ml^−1 the reagent buffer, for 30 minutes. […] The non-inhibited activity of GPa is measured in the presence of 10 μl 5% DMSO in assay buffer solution and maximum inhibition measured in the presence of 5 mgs ml^−1 N-ethylmaleimide. […] Relative Fluoresence Units (RFUs) are measured at 340 nm excitation, 465 nm emission. […]
# [3] = Thermodynamic solubility; assay type: physicochemical; conditions: phosphate buffer, pH 7.4, aqueous buffer, thermodynamic from solid, 0.1 M phosphate at pH7.4 for 24 hours
# Experimental: The thermodynamic solubility data for the compounds of the invention as given above may be measured by agitating the compound in 0.1 M phosphate at pH7.4 for 24 hours, then analysis of the supernatant (for example by LCUV/MS) using a solution (for example in DMSO) of known concentration as the calibrant.
# [4] = system: hepatocytes; conditions: cited from earlier work; for glucose output: glucagon stimulated
# [5] = system: db/db and ob/ob mice; conditions: dose related; cited from earlier work
IC50 [2],solubility at 24 h [3],SMILES,glucagon stimulated glycogenolysis [4],glucose output [4],plasma glucose concentration [5],also measured
–,–,CCN1C(C)=C(C(=O)OC(C)C)C(c2ccccc2Cl)C2=C1COC2=O (stereo not drawn) [Bay R 3401],–,–,–,arterial plasma glucose [1]: reduced significantly; hepatic glucose output [1]: reduced significantly
500 nM,173 µM,"CN(C(=O)[C@@H](N)CO)[C@@H]1c2ccccc2C[C@H]1NC(=O)c1cc2cc(Cl)ccc2[nH]1.Cl [Example 2, 5-Chloro-N-{(1R,2R)-1-[methyl(seryl)amino]-2,3-dihydro-1H-inden-2-yl}-1H-indole-2-carboxamide hydrochloride]",–,–,–,–
110 nM,119 µM,"CN(C(=O)[C@H](O)CO)[C@@H]1c2ccccc2C[C@H]1NC(=O)c1cc2cc(Cl)ccc2[nH]1 [Example 19, 5-Chloro-N-{(1R,2R)-1-[[(2R)-2,3-dihydroxypropanoyl](methyl)amino]-2,3-dihydro-1H-inden-2-yl}-1H-indole-2-carboxamide]",–,–,–,–
–,–,CN(C)C(=O)[C@H](O)[C@H](Cc1ccccc1)NC(=O)c1cc2cc(Cl)ccc2[nH]1 [CP91149],reduce,reduce,"reduced, in a dose related manner",–
–,–,O=C(N[C@@H](Cc1ccc(F)cc1)C(=O)N1CCC(O)CC1)c1cc2cc(Cl)ccc2[nH]1 [CP320626],reduce,reduce,"reduced, in a dose related manner",–
